Laboratory results taken from PubChem BioAssay (NCI).
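Grown in 96-well plates, cells were treated for 48 hours with each compound at five concentrations. Insufficient inhibition: endpoint recorded as highest concentration tested. GI50: concentration for 50% inhibition of growth. Definition used: TGI = concentration required for complete inhibition of growth.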

What was measured:
Test in all cases: NCI anticancer screen, dose series, 48 h
A549 NSCLC = system: A549 NSCLC
EKVX NSCLC = system: EKVX NSCLC
HCT-15 colon = system: HCT-15 colon
LOX IMVI melanoma = system: LOX IMVI melanoma
LXFL 529 NSCLC = system: LXFL 529 NSCLC
SNB-78 CNS = system: SNB-78 CNS
SW-620 colon = system: SW-620 colon
HOP-62 NSCLC = system: HOP-62 NSCLC
MDA-MB-231 breast = system: MDA-MB-231 breast
T-47D breast = system: T-47D breast

Compound	TGI (A549 NSCLC) [µM]	TGI (EKVX NSCLC) [µM]	TGI (HCT-15 colon) [µM]	TGI (LOX IMVI melanoma) [µM]	TGI (LXFL 529 NSCLC) [µM]	TGI (SNB-78 CNS) [µM]	TGI (SW-620 colon) [µM]	TGI (HOP-62 NSCLC) [µM]	GI50 (A549 NSCLC) [µM]	GI50 (EKVX NSCLC) [µM]	GI50 (HCT-15 colon) [µM]	GI50 (HOP-62 NSCLC) [µM]	GI50 (LOX IMVI melanoma) [µM]	GI50 (MDA-MB-231 breast) [µM]	TGI (MDA-MB-231 breast) [µM]	GI50 (SW-620 colon) [µM]	GI50 (T-47D breast) [µM]	TGI (T-47D breast) [µM]
O=C(/C=C/c1ccccc1F)C(c1ccccc1)c1ccccc1	17.4	24.4	23.8	3.2	12	34.8	11.5	–	–	–	–	–	–	–	–	–	–	–
COc1nc2c(nc(N)n2C2OC(CO)C(O)C(O)C2O)c(=O)n1C (stereo not drawn)	> 100	> 100	–	> 100	> 100	> 100	> 100	> 100	–	–	–	–	–	–	–	–	–	–
COC(=O)/C(C#N)=C1\N=NNN1CCCc1ccccc1	> 100	> 100	> 100	> 100	> 100	> 100	> 100	–	–	–	–	–	–	–	–	–	–	–
Cc1cc2c(=O)cc(-c3ccc(Cl)cc3)oc2c(C(=O)O)c1C	> 100	> 100	> 100	> 100	> 100	> 100	> 100	–	–	–	–	–	–	–	–	–	–	–
C/C=C/C1(NS(=O)(=O)c2ccc(C)cc2)CCC(C(C)(C)C)CC1 (stereo not drawn)	> 100	64.5	93.7	–	> 100	64.1	67.3	49.7	–	–	–	–	–	–	–	–	–	–
CCOc1ccc(NC(=O)C2=C(C)NC(C)=C(C(=O)Nc3ccc(OCC)cc3)C2c2ccc([N+](=O)[O-])cc2)cc1	> 100	> 100	–	> 100	> 100	> 100	> 100	> 100	–	–	–	–	–	–	–	–	–	–
C[Si](C)(C)/C(Br)=C\CCN1C(=O)CCC1O (stereo not drawn)	> 100	> 100	> 100	> 100	> 100	> 100	> 100	–	–	–	–	–	–	–	–	–	–	–
CC(C)(C)c1cc(C(O)(C(F)(F)F)C(F)(F)F)c2c(c1)C(C(F)(F)F)(C(F)(F)F)OC(c1ccccc1)(C(C)(C)C)N2 (stereo not drawn)	> 100	17.5	13.7	–	12.5	24.1	16.7	–	–	–	–	–	–	–	–	–	–	–
C=C1C(=O)O[C@H]2[C@H]1CC/C(COC(=O)CCC(=O)OC/C1=C/CC[C@@]3(C)O[C@H]3[C@H]3OC(=O)C(=C)[C@@H]3CC1)=C\CC[C@@]1(C)O[C@@H]21	30	11.6	3.58	2.75	–	–	2.1	10.6	13.7	2.55	1.54	3.21	1.37	1.65	3.72	0.602	1.06	3.67
Cc1cc(Cl)ccc1N1C(=O)C(=O)C(c2nc3ccccc3s2)C(=O)C1=O	> 100	> 100	> 100	–	> 100	> 100	> 100	> 100	–	–	–	–	–	–	–	–	–	–
COC(=O)c1oc2c(C(=O)/C=C/c3ccc(OC)cc3)c(OCCCN3CCCCC3)ccc2c1C	5.28	7.18	2.35	2.82	–	–	3.03	3.48	2.04	2.01	0.901	1.67	1.45	1.69	3.78	1.38	1.42	4.89
COC(=O)c1c(-c2ccccc2)csc1NC(=O)c1c(-c2ccccc2)noc1C	> 100	> 100	> 100	3.56	–	–	> 100	> 100	0.568	–	0.0809	4.56	0.24	7.66	> 100	0.705	3.41	> 100
CCN1C(=O)N(c2c(F)c(OC)cc(OC)c2F)Cc2cnc3[nH]c(CN4CCOCC4)cc3c21	> 100	> 100	> 100	> 100	–	–	> 100	> 100	2.83	9.49	0.947	2.35	2.37	3.06	39.3	3.51	3.04	25
Cc1ccc(/C=C(\C#N)n2nnc3cc(F)c(F)cc32)cc1	7.3	41.2	15.3	11.4	–	–	11.2	3.64	2.28	3.86	0.651	1.52	2.88	3.33	12.8	0.891	1.19	5.39
O=C(Nc1ccccc1Cl)c1ccc(NC2=C(Cl)C(=O)N(Cc3ccccc3)C2=O)cc1	> 100	> 100	29.2	32.6	–	–	58.1	> 100	60.4	> 100	15	41.2	17.9	31.3	91.9	25.4	62.4	> 100
Cc1ccc(S(=O)(=O)N2CCCCC2CCO)cc1 (stereo not drawn)	> 100	> 100	> 100	–	> 100	> 100	> 100	> 100	–	–	–	–	–	–	–	–	–	–
COc1ccccc1Nc1nc(-c2cc3cccc(C(F)(F)F)c3oc2=O)cs1	> 100	> 100	> 100	> 82.2	–	–	> 100	29.7	0.261	0.164	0.151	0.134	0.14	0.516	> 55.9	0.144	0.0535	> 100
O=S1(=O)CSc2ccc3ccccc3c2-c2c1ccc1ccccc21	> 100	–	–	> 100	> 100	> 100	> 100	> 100	–	–	–	–	–	–	–	–	–	–
CSC(=S)N/N=C(\C)c1ccccn1	18	17.5	24.5	12.6	–	–	17.3	5.19	0.311	0.117	0.16	0.366	0.206	0.113	8.98	0.169	< 0.01	15.2
COc1cc(/C=C/C(=O)c2ccc(Nc3nc(Nc4ccc(F)cc4)nc(Nc4ccc(F)cc4)n3)cc2)cc(OC)c1OC	> 100	> 100	> 100	> 100	–	–	> 100	> 100	8.27	59.1	5.53	5.26	6.73	15.8	> 100	7.28	5.76	> 100
